Assay results: patent US20120190666A1, “Heteroaryl Compounds as PIKK Inhibitors” (Amgen Inc., priority 2009, published 2012)

How the values were obtained:
mTOR = mTOR (Homo sapiens, UniProt P42345); assay: mTOR LanthaScreen (TR-FRET, phosphorylation of 4EBP1); assay type: biochemical; details: phosphorylation of GFP-4E-BP1, 10 μM ATP, 90 minutes
Method: The mTOR LanthaScreen is a TR-FRET assay measuring the phosphorylation of mTOR's substrate 4EBP1. 384 well compound plates were prepared containing 1 μl of compound per well starting at 5 mM and diluted 1:2 across the row, resulting in a 22 well serial dilution. 24 μl of assay buffer (Invitrogen, PV4794) with 2 mM DTT was added to the compound plate in rows 1-24 using the VELOCITY 11™ VPREP™ 384 ST resulting in a DMSO concentration of 4%. The compound plate was mixed and 2.5 μl of serially diluted compound or controls was added to the assay plate (Costar, 3658).
The assay was conducted on the PerkinElmer® FlexDrop PLUS. A 5 μl mix of 800 nM GFP-4E-BP1 (Invitrogen, PV4759) and 20 μM ATP (Amgen) was added to rows 1-24. 2.5 μl of 0.6 μg/ml of mTOR Enzyme (Amgen) was added to rows 1-23. 2.5 μl of assay buffer was added to row 24 for the low control. The final concentration of the compounds was 50 μM serially diluted to 23.84 pM in 1% DMSO. […] The final concentrations in the assay reagents were 400 nM GFP-4E-BP1, 10 μM of ATP and 0.15 μg/ml of mTOR enzyme. The compound, enzyme, and substrate were incubated for 90 minutes. At this point, 10 μl of stop solution was added (20 mM Tris, pH 7.5 (Invitrogen, 15567-027), 0.02% Sodium Azide (Teknova, S0208), 0.01% NP-40 (Roche, 11754599001), 20 mM EDTA (Invitrogen, 15575-038) and 4 nM of Tb-anti-p4E-BP1 (Invitrogen, PV4758)) for a final concentration of 2 nM of Tb-anti-p4E-BP1.
Sixty minutes later the plates were read on the PerkinElmer® EnVision™ 2103 Multilable Reader using the Excitation filter 340 nm and the Emission filters 520 nm and 495 nm.

PI3Kα = molecular target: T1, PI3Kα (Homo sapiens, UniProt P42336); assay: In vitro PI3K AlphaScreen assay, PI3Kα; assay type: biochemical; details: PI(4,5)P2 substrate, 20 minutes at room temperature, read-out: P13Kalpha IC50 um
T1 construct: Full length p110 subunits of PI3K α, β and δ, N-terminally labeled with polyHis tag; polyHis (N); made in house; host or cells: Sf9 insect cells (baculovirus)
T1 sequence (P42336 whole entry): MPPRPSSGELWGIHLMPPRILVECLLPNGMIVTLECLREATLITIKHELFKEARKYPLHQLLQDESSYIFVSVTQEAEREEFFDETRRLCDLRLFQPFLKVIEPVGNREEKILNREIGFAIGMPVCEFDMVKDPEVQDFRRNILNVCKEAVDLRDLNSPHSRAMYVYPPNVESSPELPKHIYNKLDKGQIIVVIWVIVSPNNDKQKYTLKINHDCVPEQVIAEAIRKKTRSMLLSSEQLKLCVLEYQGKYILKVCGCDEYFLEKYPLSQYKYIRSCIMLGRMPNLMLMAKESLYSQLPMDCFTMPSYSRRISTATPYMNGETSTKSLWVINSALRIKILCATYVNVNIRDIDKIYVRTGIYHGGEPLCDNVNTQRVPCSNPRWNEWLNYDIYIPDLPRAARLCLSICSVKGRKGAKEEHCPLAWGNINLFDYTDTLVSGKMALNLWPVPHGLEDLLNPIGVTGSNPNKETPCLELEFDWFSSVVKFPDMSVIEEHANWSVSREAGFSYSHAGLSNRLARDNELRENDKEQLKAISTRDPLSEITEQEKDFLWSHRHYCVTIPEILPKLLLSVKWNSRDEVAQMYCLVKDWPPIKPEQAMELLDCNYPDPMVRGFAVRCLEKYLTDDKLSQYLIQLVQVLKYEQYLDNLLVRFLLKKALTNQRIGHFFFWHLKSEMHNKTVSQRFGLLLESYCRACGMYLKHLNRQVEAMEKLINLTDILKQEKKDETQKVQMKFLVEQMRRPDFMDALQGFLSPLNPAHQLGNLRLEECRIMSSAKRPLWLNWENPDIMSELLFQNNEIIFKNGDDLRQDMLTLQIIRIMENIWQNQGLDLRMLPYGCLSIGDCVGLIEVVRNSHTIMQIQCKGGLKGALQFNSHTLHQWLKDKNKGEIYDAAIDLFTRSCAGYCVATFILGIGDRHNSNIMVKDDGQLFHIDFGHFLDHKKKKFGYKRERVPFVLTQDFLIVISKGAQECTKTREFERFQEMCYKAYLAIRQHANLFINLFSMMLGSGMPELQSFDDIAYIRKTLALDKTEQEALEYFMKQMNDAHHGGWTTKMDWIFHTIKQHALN
T1 sequence (P27986 whole entry partner): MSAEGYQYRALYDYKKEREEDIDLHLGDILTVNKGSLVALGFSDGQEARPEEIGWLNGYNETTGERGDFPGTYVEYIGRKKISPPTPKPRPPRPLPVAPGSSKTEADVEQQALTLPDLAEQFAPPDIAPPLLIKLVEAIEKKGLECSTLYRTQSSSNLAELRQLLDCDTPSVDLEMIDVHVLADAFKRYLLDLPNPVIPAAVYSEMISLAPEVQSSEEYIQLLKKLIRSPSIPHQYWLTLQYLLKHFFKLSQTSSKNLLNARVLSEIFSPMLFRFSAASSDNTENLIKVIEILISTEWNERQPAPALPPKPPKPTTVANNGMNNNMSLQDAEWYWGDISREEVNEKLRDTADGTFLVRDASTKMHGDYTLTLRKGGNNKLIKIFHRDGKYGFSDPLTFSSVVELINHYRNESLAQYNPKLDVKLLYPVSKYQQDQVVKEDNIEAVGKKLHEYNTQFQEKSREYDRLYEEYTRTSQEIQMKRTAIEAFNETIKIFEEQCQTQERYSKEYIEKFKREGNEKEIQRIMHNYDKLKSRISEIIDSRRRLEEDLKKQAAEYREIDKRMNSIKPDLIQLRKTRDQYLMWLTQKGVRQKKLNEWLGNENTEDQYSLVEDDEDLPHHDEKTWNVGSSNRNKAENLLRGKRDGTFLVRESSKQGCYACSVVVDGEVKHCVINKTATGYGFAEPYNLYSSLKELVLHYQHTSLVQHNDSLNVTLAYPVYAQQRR
Method: The PI3K AlphaScreen® assay (PerkinElmer, Waltham, Mass.) measures the activity of a panel of four phosphoinositide 3-kinases: PI3Kα, PI3KIβ, PI3Kγ, and PI3Kδ. Each of these enzymes phosphorylates the 3′-hydroxyl group on phosphatidylinositiol (4,5)-bisphosphate (PIP2) to produce phosphatidylinositol (3,4,5)-trisphosphate (PIP3). This phosphorylation activity is measured using a GST-tagged PIP3 binding protein (Echelon Biosciences, Salt Lake City, Utah), an anti-GST-tagged Acceptor bead, and streptavidin-Donor bead. The interaction of biotinylated-PIP3 analog (IP4) and the PIP3 binding protein brings both Acceptor and Donor beads together producing, upon excitation of the Donor beads at 680 nm, a singlet oxygen species leading to the luminescent AlphaScreen® signal. When PIP3 is produced via phosphorylation of PIP2 by a PI3K, PIP3 competes with biotinylated-PIP3 analog (IP4) for binding to the PIP3 binding protein. In the absence of this interaction, proximity of the Donor and Acceptor beads is decreased, producing a loss of luminescent signal which is […] to PI3K activity. […] The enzyme reaction buffer is made using sterile water (Baxter, Deerfield, Ill.) and 50 mM Tris HCl pH 7, 14 mM MgCl2, 2 mM sodium cholate, and 100 mM NaCl. 2 mM DTT is added fresh the day of the experiment. The AlphaScreen® reaction buffer is made using sterile water and 10 mM Tris HCl pH 7.5, 150 mM NaCl, 0.10% Tween 20, and 30 mM EDTA. 1 mM DTT is added fresh the day of the experiment. The source plates for this assay are 384-well Greiner clear polypropylene plates containing test compounds at 5 mM and diluted 1:2 over 22 points. Columns 23 and 24 contain only DMSO as these are designated for positive and negative controls. Source plates are replicated into 384-well Optiplates (PerkinElmer, Waltham, Mass.), 0.5 μL/well, to make assay-ready plates. The different PI3K isoforms are each diluted in enzyme reaction buffer to 2× working solutions. PI3Kα is diluted to 1.6 nM, PI3Kβ is diluted to 0.8 nM, PI3Kγ is diluted to 15 nM, and PI3Kδ is diluted to 1.6 nM. Two different 2× substrate solutions are made in enzyme reaction buffer. In one solution, PI(4,5)P2 (Echelon Biosciences, Salt Lake City, Utah) is diluted to 10 μM and ATP is diluted to 20 μM. This solution is used in the assays testing PI3Kα and PI3Kβ. In a second solution, PI(4,5)P2 is diluted to 10 μM and ATP is diluted to 80 μM. This solution is used in the assays testing PI3Kγ and PI3Kδ. The AlphaScreen® reaction solutions are made using beads from the anti-GST AlphaScreen® kit (PerkinElmer, Waltham, Mass.). Two solutions are made in Alphascreen reaction buffer to 4× working concentrations. In one solution, biotinylated-IP4 (Echelon Biosciences, Salt Lake City, Utah) is diluted to 40 nM and streptavadin-Donor Beads are diluted to 80 μg/mL. In the second solution, PIP3-binding protein (Echelon Biosciences, Salt Lake City, Utah) is diluted to 40 nM and anti-GST-Acceptor Beads are diluted to 80 μg/mL. 10 μL/well of enzyme reaction buffer is added to Column 24 of the assay ready plates in place of enzyme. This is done for plates in the PI3Kα, β, and δ assays. Using a 384-well dispensing Multidrop (Titertek, Huntsville, Ala.), 10 μL/well of 2× enzyme (PI3Kα, β, δ) is added to Columns 1-23 of the appropriate assay ready plates (for PI3Kγ 10 μL is added to Columns 1-24). 10 μL/well of the appropriate substrate solution (the solution with 20 μM ATP for PI3Kα and β assays, and the solution with […] for PI3Kγ and δ assays) is then added to Columns 1-24 of the plates. Plates are then incubated at room temperature for 20 minutes. In the dark, 10 μL/well of the Donor Bead solution is added to Columns 1-24 of the plates to quench the enzyme reaction. The plates are incubated at room temperature for 30 minutes. Still in the dark, 10 μL/well of the Acceptor Bead solution is also added to Columns 1-24 of the plates. The plates are then incubated in the dark for 1.5 hours.

[1] = test system: phosphorylation of Akt at Serine 473 in U87 MG cells; assay: pAkt AlphaScreen (U87 cell); assay type: cell-based; details: Homo sapiens, U-87 MG, 2 h; pAkt at Serine 473, U87 MG cells, two hours with compound
Method: The pAkt AlphaScreen® assay (PerkinElmer, Waltham, Mass.) determines whether there is phosphorylation of Akt at Serine 473 by recruitment of a phosphospecific antibody. This assay was performed using U87 MG cells. The U87 growth media consists of MEM (Gibco, Carlsbad, Calif.) supplemented with 10% FBS (Gibco), 1× Non-Essential Amino Acids (Gibco,) and 1× Penicillin/Streptomycin/Glutamine (Gibco). The cells were maintained weekly using 0.05% Trypsin (Gibco) and replated in 150 mm TC— Treated Culture Dishes (Corning, Corning, N.Y.).
The first day of the assay, the adherent cells were trypsinized, media was added to the loose cells and cells were mixed to a homogenous mixture. 0.5 ml of the homogenous mixture was counted on the Beckman Coulter® Vi-Cell™ XR (Fullerton, Calif.). 50 frames of cells were counted and the number of viable cells was determined. The cells were then diluted to 0.25 million cells per ml, and centrifuged at 200 rcf for 5 minutes. The media was removed and the cells were reconstituted in fresh media for plating. The cells were plated at 20 μl per well on the PerkinElmer® FlexDrop PLUS in Low Volume 384 Well White Tissue Culture Plates (Corning) with a final cell density of 5K cells per well. The plates were incubated overnight at 37° Celsius, 5% CO2.
On the second day, the compound plates were prepared, the cells were treated with compound and the pAkt reaction mix was added to the cell lysate. 384 well compound plates were prepared containing 1 μl of compound per well starting at 5 mM and diluted 1:2 across the row, resulting in a 22 well serial dilution. 39 μl of growth media was added to the compound plate in rows 1-22 using the PerkinElmer® FlexDrop PLUS resulting in a DMSO concentration of 2.5%. The cell plates and diluted compound plates were put onto the VELOCITY11™ VPREP™ 384 ST where the compound plate was mixed and 5 μl of serially diluted compound or controls was added to the cell plate. The final concentration of the compounds was 25 μM serially diluted to 11.9 pM in 0.5% DMSO.
The cell plates were then incubated with compound for two hours at 37° C., 5% CO2. After two hours, the media in the cell plates was aspirated using the BioTek® ELx405HT plate washer (Winooski, Vt.) removing the majority of media and compound without disturbing the adherent U87 cells. The following assay reagents are components of the SureFire® Akt (Ser 473) Phosphorylation 50K Point Kit (TGR BioSciences, Adelaide, Austalia) and an IgG Detection Kit (PerkinElmer, Waltham, Mass.). 5 μl of 1× Lysis Buffer was added to each well using the PerkinElmer® FlexDrop PLUS. The plates were then incubated at room temperature on a shaker for ten minutes. The AlphaScreen® reaction was prepared under low light conditions (subdued or green light) including p-Aid (Ser 473) Reaction Buffer, Dilution Buffer, Activation Buffer, Acceptor Beads and Donor Beads at a ratio of 40:20:10:1:1 respectively. The AlphaScreen® reaction was added to the cell lysate at 6 μl per well using the PerkinElmer® FlexDrop PLUS. The plates were placed in a humid environment to reduce edge effects and incubated overnight at room temperature with restricted air flow in the dark.
On the final day of the experiment, the plates were read on the PerkinElmer® EnVision™ 2103 Multilable Reader using the standard AlphaScreen® readout. The POC is calculated and the data is analyzed to report the IC50 IP for pAkt at Serine 473.
Activity data for the compounds tested in the PI3K cell based Akt assay is provided in Table 1 under the column heading U87

| Structure (SMILES) | IC50 (mTOR) | IC50 (PI3Kα) | IC50 [1] |
| --- | --- | --- | --- |
| Cc1nc(N)nc(-c2c(Nc3ccn(C(=O)NCCO)n3)nc3ccccn23)n1 [Cpd 198, 3-((3-(4-amino-6-methyl-1,3,5-triazin-2-yl)imidazo[1,2-a]pyridin-2-yl)amino)-N-(2-hydroxyethyl)-1H-pyrazole-1-carboxamide] | 110 nM | 2210 nM | – |
| Cc1nc(N)nc(-c2c(Nc3ccnn3C(=O)N3CCOCC3)nc3ccccn23)n1 [Cpd 201] | 250 nM | 1390 nM | – |
| Cc1nc(N)cc(-c2c(Nc3ccn(S(C)(=O)=O)n3)nc3ccccn23)n1 [Cpd 217, 3-(6-amino-2-methyl-4-pyrimidinyl)-N-(1-(methylsulfonyl)-1H-pyrazol-3-yl)imidazo[1,2-a]pyridin-2-amine] | 1740 nM | – | 1180 nM |
| CNCCNC(=O)n1ccc(Nc2nc3cccnn3c2-c2cc(N)nc(C)n2)n1 [Cpd 258] | 500 nM | 30 nM | – |
